The values that follow come from paper PMC9983021, “Novel GluN2B-Selective NMDA Receptor Negative Allosteric Modulator Possesses Intrinsic Analgesic Properties and Enhances Analgesia of Morphine in a Rodent Tail Flick Pain Model” (ACS Chemical Neuroscience, 2023).

In test [1] the test system is C57BL/6J mice. The test is described as follows: Hot water tail immersion test, compound alone (intrinsic antinociception). It counts as in vivo. Particulars: for dose at which significant increase in latency was achieved / dose at which significant latency increases were achieved: i.p.; for effect on tail flick latency vs vehicle / mean latency increase: i.p. 30 min prior to test; for effect on tail flick latency vs vehicle: n = 8 per group; for dose at which significant latency increases were achieved: lowest significant dose. An excerpt: After evaluating EU93-108 in vitro, we next evaluated a panel of GluN2B inhibitors for their ability to produce an antinociceptive effect using a classical model of pain perception, determination of tail flick latency for mice when their tails are placed in hot water (Figures 4 and 5). The hot water tail immersion test is a well-validated method of assessing reflexive (i.e., spinal) pain-like response in rodents.[80]−[83] We interpret a drug-induced increase in tail flick latency as analgesia.
The inhibitors were injected i.p. 30 min prior to a hot water tail immersion test. Four treatment groups and one control group were used (n = 8 per group) where the control group received vehicle (10% DMSO, 20% PEG, 2% DMA in water) and groups 1 through 4 were randomly assigned one dose of the appropriate compound.
All animal studies performed at Emory have been approved by the Institutional Animal Care and Use Committee at Emory University. Male and female C57BL/6J mice weighing between 20 and 30 g were housed five per cage and given ad libitum access to food and water. The mice were 8–10 weeks of age at the time of experimentation. Animal holding rooms operated on a 12 h dark/light cycle with the dark cycle from 7:00 pm to 7:00 am. Mice were allowed to acclimate in cages for one week after arrival. The mice were handled regularly and habituated to scruffing and cloth restraint for 3–5 days prior to experimentation.
Mouse weights were recorded on the day of each experiment. Mice were given the appropriate treatment(s) 30 min prior to testing. All injection volumes were 10 mL/kg (e.g., 350 μL for a 35 g mouse). For the tail immersion experiments, each mouse was restrained with a Wypall cloth, leaving the tail exposed. The distal two-thirds of the tail was lowered into a sous vide water bath set to 48 °C, and a stopwatch with a resolution of 0.01 s was used to record the time elapsed between immersion and tail flick. Three recordings were taken for each mouse, and each data point is expressed as the mean of the three recordings. A cut-off time of 25 s was implemented to prevent tissue damage or scarring. For each experiment, the identities of the doses were coded by an independent researcher to ensure blinding. The identities were not decoded until the data were analyzed.
Prism 9.3.1 software (GraphPad, San Diego, CA) was used for all data analysis and visualization. Data for intrinsic antinociception was analyzed using one-way ANOVA and Dunnett’s post hoc test for multiple comparisons where each group was compared to vehicle. Data for acute morphine potentiation experiments were analyzed using one-way ANOVA and Tukey’s post hoc test for multiple comparisons was also used, where each group mean was compared to the mean of every other group. Data for tolerance experiments were analyzed using repeated measures two-way ANOVA and Bonferroni post hoc analysis. Data are presented as mean ± SEM and p < 0.05 constitutes significance.

Test [2] concerns C57BL/6J mice. The experiment in a line: Preestablished morphine tolerance (tolerant mice, tail immersion test). It counts as in vivo. As to conditions: co-administered with morphine; males 10 mg/kg, females 20 mg/kg i.p. An excerpt:
We next wanted to assess EU93-108 for effects on other facets of tolerance. Specifically, we were interested in whether EU93-108 could increase tail flick latency in mice that were already tolerant to morphine (i.e., preestablished tolerance). To assess the effect of EU93-108 on preestablished tolerance, five groups were used (n = 8 per group): vehicle/saline, vehicle/morphine, ifenprodil/morphine, EU93-108/saline, and EU93-108/morphine. All groups except for the vehicle/saline control group were administered morphine three times per day (according to the stair stepping protocol outlined in Figure 11) at gradually increasing doses from 25 to 40 mg/kg three times a day at 3–4 h intervals for three consecutive days until tolerance was observed on day 4 (Figure 12, black circles).
Figure 11 Dosing regimen to assess effects of EU93-108 on tolerant mice. TIT = tail immersion test. All mice received morphine or saline three times a day according to the protocol in Figure 9. Doses of morphine are shown above the arrows, in mg/kg. Once tolerance was established on day 4, the mice were randomly assigned to receive vehicle, EU93-108, or ifenprodil once a day for two consecutive days. […]
Mouse weights were recorded on the day of each experiment. […] Three recordings were taken for each mouse, and each data point is expressed as the mean of the three recordings. […] The identities were not decoded until the data were analyzed.
Prism 9.3.1 software (GraphPad, San Diego, CA) was used for all data analysis and visualization. Data for intrinsic antinociception was analyzed using one-way ANOVA and Dunnett’s post hoc test for multiple comparisons where each group was compared to vehicle. Data for acute morphine potentiation experiments were analyzed using one-way ANOVA and Tukey’s post hoc test for multiple comparisons was also used, where each group mean was compared to the mean of every other group. Data for tolerance experiments were analyzed using repeated measures two-way ANOVA and Bonferroni post hoc analysis. […]

As to `CS(=O)(=O)Nc1ccc(OC[C@@H](O)CNCCc2ccc(Cl)c(Cl)c2)cc1` [EU93-4], in test [1] (female mice), the “dose at which significant increase in latency was achieved” value worked out at 50 mg/kg and the “effect on tail flick latency vs vehicle” value is “significant increases in latency at the highest doses tested”. Also, in test [1] (male mice), the mean latency increase came to 10 s, the “effect on tail flick latency vs vehicle” value is given as “significant increases in tail flick latency at 50 mg/kg” and the “dose at which significant latency increases were achieved” value worked out at 50 mg/kg.

As to `CCCCN(CCc1ccc(Cl)c(Cl)c1)C[C@H](O)COc1ccc(NS(C)(=O)=O)cc1` [EU93-31], in test [1] (female mice), the “dose at which significant increase in latency was achieved” value is listed as 100 mg/kg and the “effect on tail flick latency vs vehicle” value was “significant increases in latency at the highest doses tested”. Moreover, in test [1] (male mice), the mean latency increase was 10 s; the “effect on tail flick latency vs vehicle” value was “significant increases in latency at the two highest doses tested (50 and 100 mg/kg)”; the “dose at which significant latency increases were achieved” value is 50 mg/kg.

Regarding `CN1CC[C@]23c4c5ccc(O)c4O[C@H]2[C@@H](O)C=C[C@H]3[C@H]1C5` [Morphine], the ED50 in test [1] (Mus musculus, sc, 0.5 h, read-out: ED50 (tail flick latency), morphine dose-response curve) worked out at 5.15 mg/kg.

In the case of `C[C@H](CN1CCC(Cc2ccccc2)CC1)[C@H](O)c1ccc(O)cc1` [Ro25-6981, reference compound], the entries for the “effect on tail flick latency vs vehicle” value in test [1] (female mice) and in test [1] (male mice) were “did not produce any significant increases in latency at the doses tested” and “did not display significant increases in latency at the doses tested”, respectively.

In the case of `CC(C(O)c1ccc(O)cc1)N1CCC(Cc2ccccc2)CC1` (stereo not shown) [ifenprodil, reference compound], the “effect on tail flick latency vs vehicle” value in test [1] (female mice) was “did not produce any significant increases in latency at the doses tested”; in test [1] (male mice), “did not display significant increases in latency at the doses tested”. In test [2], the “tail flick latency in morphine-tolerant mice, day 5 vs day 4” value is on record as “continued to decrease on day 5”.

As a reminder, the ED50 is the dose at which the effect has come halfway, by size or by number of responders.
